Laboratory results published in US20100210649A1, “PYRIDAZINONES AND FURAN-CONTAINING COMPOUNDS” (Sloan-Kettering Institute for Cancer Research, priority 2006, published 2010).
Read-outs that look alike come from different tables or passages of the source. Blank lines part the entries; values can stand above or below the compound they belong to.

How the values were obtained:
[1] = tested on: NHBE (normal human bronchiolar epithelial cells); assay: cells
H827 = assay: Non Small Cell Lung Cancer proliferation assay (Alamar Blue reduction), H827; type: cell-based
Method: […] are grown and maintained in Corning 175 cm2 flasks in RPMI 1640 media supplemented with 10% FBS, 1% antibiotic solution, 1% additional glutamine and pyruvate. These cells have a doubling time of 1-2 days. All cell types are adherent and grow in colonies. The cells should be kept at a density between 50,000 cells/mL -500,000 cells/mL to provide for optimum growth and adequate nutrition. The cell line should be maintained at 37° C. in a humidified atmosphere with 5% CO2 in a sterile cell culture incubator.
Non Small Cell Lung Cancer Proliferation Assay. To perform the assay, the Non Small Cell Lung Cancer lines are diluted in media and plated into 384 well microplates at a final density of 250 cells in […]. To ensure consistency and minimal pipetting error, the cells are plated using the Multidrop 384 with the following settings: Rocker Switch set at 384, Volume 45 and Column 24.
Low Controls for this assay are made by treating Non Small Cell Lung Cancer cells with 5 ul of staurosporine at 250 uM in 10% DMSO and 1% SDS. [Final concentration in this assay is 25 uM staurosporine in 1% DMSO and 0.1% SDS.]
High Controls for this assay are made by treating Non Small Cell Lung Cancer cells with 5 ul of 10% DMSO. [Final concentration in this assay is 1% DMSO].
The remaining wells of the 384 microplate may be treated with different compounds depending on the study. Important Note: All compounds for testing in this assay should be done at the final concentration of 1% DMSO.
After addition, the cells are placed in cell culture incubator at 37° C. for 48 hours for complete treatment.
After drug treatment, cytotoxicity is measured by Alamar Blue reduction. 5 μL of Alamar Blue is added to the 384 microplates using the Flexdrop.
The cells are incubated for 48 hours at 37° C. to complete the Alamar Blue reduction.
The final step in the assay is to measure the amount of Alamar Blue reduction. […] The Alamar Blue fluorescence is measured at an excitation of 530 nm and emission of 590 nm.
For the NSCLC project, the cell based assay was screened against a small molecule library of approximately 200,000 compounds. The compound library is stored in our automated robotic freezer (Biophile) at −20° C. in 100% DMSO. Compound freeze and thaw cycles are kept to a minimum. Compounds for use are diluted into the appropriate concentration and plated into 384 well microplates using our custom built low volume 384-well head tool (TPS 384, Apricot Designs Inc., CA, USA). This assay was performed on a fully automated linear track robotic platform (CRS F3 Robot System, Thermo Electron Corp., Ontario, Canada) utilizing several integrated peripherals for plate handling, liquid dispensing, and readout detection. First, non-small cell lung cancer cell lines are dispensed into 384 well microplates (Corning #3712 Tissue Culture Treated Plate, Corning, N.Y., USA) with 5 μL of test compounds at 100 uM in 10% DMSO for screening studies or […] in 10% DMSO to 50 nM in 10% DMSO for dose response studies. The microplates are then placed at 37° C. for 48 hours to complete treatment of cells with compounds. Next, 5 ul of alamar blue was added using a liquid dispenser (Flexprop Precision Dispenser, Perkin Elmer, Mass., USA) and incubated for 48 hours at 37° C. The alamar blue prompt fluorescence was measured on Victor V (Victor^3 V, Perkin Elmer, Mass., USA) and output data files were loaded into ORIS (Oncology Research Informatics System, MSKCC, NY, USA), a screening data acquisition and analysis platform.

H2030 cells = assay: [3H]-thymidine incorporation assay, H2030; type: cell-based, human; conditions: increasing concentrations, 24 hours
Method: FIG. 1. SKI-267077 blocks DNA synthesis. H2030 cells were treated with the indicated concentration of SKI-267077 for 24 h and then the incorporation of ^3H-thymidine into DNA was determined
(§1) [^3H]-thymidine incorporation assay. Cells were seeded in 12-well plates at a density of 100 000 cells/well and treated with inhibitors for 24 hours. H3-thymidine (3 μCi/mL) was then added for 3 hours. Cells were washed twice with PBS, fixed with cold 10% TCA (in PBS) for 30 min then lysed with 0.5% NaOH/0.5% SDS. DNA was scraped from the wells and the amount of H3-thymidine incorporated determined by liquid scintillation counting.
SKI-267077 inhibits DNA synthesis. […] H2030 cells were treated with increasing concentrations of SKI-267077 for 24 hours and then incorporation of ^3H-thymide into DNA determined (FIG. 1).

H1975 = assay: [3H]-thymidine incorporation assay, H1975; type: cell-based, human; conditions: H1975, mutant EGFR
Method: (§2) FIGS. 41A-41B. SKI-267077 inhibits DNA synthesis. SKI-267077 was used to elucidate the mechanism by which this agent inhibits cell growth.
as §1

H3255 = assay: [3H]-thymidine incorporation assay, H3255; type: cell-based, human; conditions: H3255, mutant EGFR
Method: as §2, §1

cells = assay: Annexin V binding (FACS) apoptosis assay; type: cell-based; conditions: 48 hours, FITC-labeled annexin V
Method: FIG. 42. SKI-267077 induces apoptosis. Cells were treated for 48 hours with SKI-267077 and then binding of FITC-labeled annexin V to cells determined FACS analysis was used to determine the amount of annexin V-positive cells.

AKT isoforms = assay: Phosphoprotein array, AKT; type: cell-based; conditions: cells treated for 24 hours; PI-3kinase signaling pathway
Method: (§3) FIG. 43A-43C. A phosphoprotein array was used to determine which signaling pathways were affected by treatment of cells with SKI-267077. […] A phosphoprotein array (R and D Systems) was used to measure the level of phosphorylation of cellular proteins. Protein phosphorylation was determined according to the manufacturer's instructions.

p70 S6 kinase = assay: Phosphoprotein array, p70 S6 kinase; type: cell-based; conditions: cells treated for 24 hours; PI-3kinase signaling pathway
Method: as §3

[2] = tested on: MAPK isoforms ERK1 and ERK2; assay: Phosphoprotein array, ERK1 and ERK2; type: cell-based; conditions: cells treated for 24 hours; MAPK signaling pathway
Method: as §3

[3] = Homo sapiens, NHBE, read-out: IC50(uM) NHBE
[4] = Homo sapiens, read-out: Dose Response (uM) H827
[5] = Homo sapiens; read-out: Dose Response (uM) H827

SMILES: Cc1cccc(NC(=O)c2ccc([N+](=O)[O-])o2)c1 [compound 71762]
IC50 ([1]; Homo sapiens, NHBE, read-out: IC50(uM) NHBE, phenylfuran-2-carboxamide SAR summary): 15.8 µM | IC50 ([1]; read-out: IC50(uM) NHBE, phenylfuran-2-carboxamide SAR summary): 14.8 µM

SMILES: Cc1ccc(NC(=O)c2ccc([N+](=O)[O-])o2)cc1 [compound 98697]
IC50 [1, 3]: 29.4 µM

SMILES: O=C(Nc1ccc(Cl)cc1)c1ccc([N+](=O)[O-])o1 [compound 98698, 5-nitro-furan-2-carboxylic acid (4-chloro-phenyl)-amide]
IC50 [1, 3]: 21.4 µM

SMILES: Cc1cccc(-n2ncc(Cl)c(Cl)c2=O)c1 [compound 104122, 4,5-dichloro-2-m-tolyl-2H-pyridazin-3-one]
IC50 (H827; [4]): 0.09 µM

IC50 (H827; [5]): 0.17 µM
SMILES: O=c1c(Cl)c(Cl)cnn1-c1cccc(C(F)(F)F)c1 [compound 176729]

SMILES: O=c1c(Cl)c(Cl)cnn1-c1ccccc1 [compound 257014]
IC50 (H827; [4]): 0.24 µM

IC50 (H827; [5]): 0.17 µM
SMILES: O=c1c(Br)c(Br)cnn1-c1ccccc1 [compound 257015]

IC50 (H827; [5]): 0.29 µM
SMILES: Cc1ccc(-n2ncc(Cl)c(Cl)c2=O)cc1 [compound 257016]

IC50 (H827; [5]): 0.5 µM
SMILES: Cc1cccc(-n2ncc(Cl)c(Cl)c2=O)c1C [compound 257018]

IC50 (H827; [5]): 0.32 µM
SMILES: Cc1ccc(-n2ncc(Cl)c(Cl)c2=O)cc1C [compound 257019]

IC50 (H827; [5]): 0.3 µM
SMILES: Cc1cc(C)cc(-n2ncc(Cl)c(Cl)c2=O)c1 [compound 257020]

phosphorylation of p70 S6 kinase (p70 S6 kinase): blocked phosphorylation
SMILES: O=c1c(Cl)c(Cl)cnn1-c1ccc(Cl)cc1Cl [compound 267077]
incorporation of 3H-thymidine into DNA (DNA synthesis) (H2030 cells): dose-dependent decrease in DNA synthesis | DNA synthesis (H1975): dose-dependent reduction in DNA synthesis | DNA synthesis (H3255): dose-dependent reduction in DNA synthesis | apoptosis, binding of annexin-V to the cell surface (cells): induction of apoptosis | phosphorylation of AKT isoforms (AKT isoforms): blocked phosphorylation of all three AKT isoforms | phosphorylation of ERK1 and ERK2 [2]: reduced phosphorylation of the MAPK isoforms ERK1 and ERK2
